Experimental data taken from the supplement of paper PMC11208160.

Assay: recombinant UMI read abundance after kanamycin selection (control-corrected) (log10(CPM+1)); higher = more efficient recombination; extreme values may be limits of the assay; sequences stand for … in AGTGCAGAGAAAATCGGCCAGTTTTCTCTGCCTGCAGTCCGCATGCCGTGGGACCCCTTGGGTTCTAACCTGTTGCCTAGATTTATGCAGCGGACTGCCTTTCTCCCAAAGTGATAAACCGG…AGGTTGGTTTCACT; site = the 11-nt donor
Outline: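 Values are reported as log10(CPM+1), obtained by converting sequencing counts to CPM, averaging replicates and scaling by control-derived factors. The counts came from recombinant UMIs amplified by PCR across the donor–target junction. These UMIs came from a pooled Escherichia coli screen of donor and donor-binding-loop pairs for the IS621 bridge recombinase, plated with IPTG (0.07 mM) plus kanamycin or left unselected, in two replicates each.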
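Further: IS621 bridge recombinase in Escherichia coli cells against a fixed T5 target plasmid.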

| Sequence | recombinant UMI read abundance (log10) |
| --- | --- |
| CGCTTCTCATGGACCGGTTTTCCCGGTAATCCGTATTTGGG (site CACTTCTCTCC) | 0.0042 |
| CGCTTCTCATGGACCGGTTTTCCCGGTAATCCGTATTTGGG (site CCCTTCTCTCC) | 0.0589 |
| CGCTTCTCATGGACCGGTTTTCCCGGTAATCCGTATTTGGG (site CGCTTCTCTCC) | 0.00699 |
| CGCTTCTCATGGACCGGTTTTCCCGGTAATCCGTATTTGGG (site CTCTTCTCTCC) | 0.0109 |
| CGCTTGGCATGGACCGGTTTTCCCGGTAATCCGTATTTGGA (site CACTTGGCTTC) | 0.361 |
| CGCTTGGCATGGACCGGTTTTCCCGGTAATCCGTATTTGGA (site CCCTTGGCTTC) | 0 |
| CGCTTGGCATGGACCGGTTTTCCCGGTAATCCGTATTTGGA (site CGCTTGGCTTC) | 0.824 |
| CGCTTGGCATGGACCGGTTTTCCCGGTAATCCGTATTTGGA (site CTCTTGGCTTC) | 0.00767 |
| CGGAAACCATGGACCGGTTTTCCCGGTAATCCGTATTTGCT (site CGGAAACCTAG) | 0 |
| CGGAAACCATGGACCGGTTTTCCCGGTAATCCGTATTTGCT (site CGGAATCCTAA) | 0 |
| CGGAACCCATGGACCGGTTTTCCCGGTAATCCGTATTTGGT (site CGGAACCCTAC) | 1.06 |
| CGGAACCCATGGACCGGTTTTCCCGGTAATCCGTATTTGGT (site CGGAATCCTAA) | 0 |
| CGGAACCCATGGACCGGTTTTCCCGGTAATCCGTATTTGTG (site CGGAACCCTCA) | 1.13 |
| CGGAACCCATGGACCGGTTTTCCCGGTAATCCGTATTTGTG (site CGGAATCCTAA) | 0 |
| CGGAAGACATGGACCGGTTTTCCCGGTAATCCGTATTTGTG (site CGGAAGACTCA) | 2.67 |
| CGGAATCCATGGACCGGTTTTCCCGGTAATCCGTATTTGAC (site CGGAATCCTAA) | 0.003 |
| CGGAATCCATGGACCGGTTTTCCCGGTAATCCGTATTTGAC (site CGGAATCCTGT) | 1.1 |
| CGGAATCCATGGACCGGTTTTCCCGGTAATCCGTATTTGAT (site CGGAATCCTAA) | 0 |
| CGGAATCCATGGACCGGTTTTCCCGGTAATCCGTATTTGAT (site CGGAATCCTAC) | 0.0207 |
| CGGAATCCATGGACCGGTTTTCCCGGTAATCCGTATTTGAT (site CGGAATCCTAG) | 0 |
| CGGAATCCATGGACCGGTTTTCCCGGTAATCCGTATTTGAT (site CGGAATCCTAT) | 0.646 |
| CGGAATCCATGGACCGGTTTTCCCGGTAATCCGTATTTGGT (site CGGAATCCTAA) | 0 |
| CGGAATCCATGGACCGGTTTTCCCGGTAATCCGTATTTGGT (site CGGAATCCTAC) | 0.913 |
| CGGAATCCATGGACCGGTTTTCCCGGTAATCCGTATTTGGT (site CGGAATCCTAG) | 0 |
| CGGAATCCATGGACCGGTTTTCCCGGTAATCCGTATTTGGT (site CGGAATCCTAT) | 0 |

| Sequence | recombinant UMI read abundance (log10) |
| --- | --- |
| CGGAATCCATGGACCGGTTTTCCCGGTAATCCGTATTTGTA (site CGGAATCCTAA) | 0 |
| CGGAATCCATGGACCGGTTTTCCCGGTAATCCGTATTTGTA (site CGGAATCCTCA) | 0.781 |
| CGGAATCCATGGACCGGTTTTCCCGGTAATCCGTATTTGTA (site CGGAATCCTGA) | 0 |
| CGGAATCCATGGACCGGTTTTCCCGGTAATCCGTATTTGTA (site CGGAATCCTTA) | 1.29 |
| CGGAATGCATGGACCGGTTTTCCCGGTAATCCGTATTTGGT (site CGGAATCCTAA) | 0 |
| CGGAATGCATGGACCGGTTTTCCCGGTAATCCGTATTTGGT (site CGGAATGCTAC) | 2.27 |
| CGGAATTCATGGACCGGTTTTCCCGGTAATCCGTATTTGTT (site CGGAATACTAA) | 0.00592 |
| CGGAATTCATGGACCGGTTTTCCCGGTAATCCGTATTTGTT (site CGGAATCCTAA) | 0.0141 |
| CGGAATTCATGGACCGGTTTTCCCGGTAATCCGTATTTGTT (site CGGAATGCTAA) | 0.00572 |
| CGGAATTCATGGACCGGTTTTCCCGGTAATCCGTATTTGTT (site CGGAATTCTAA) | 2.72 |
| CGGACATCATGGACCGGTTTTCCCGGTAATCCGTATTTGCG (site CGGACATCTAG) | 0 |
| CGGACATCATGGACCGGTTTTCCCGGTAATCCGTATTTGCG (site CGGACATCTCG) | 2.25 |
| CGGACATCATGGACCGGTTTTCCCGGTAATCCGTATTTGCG (site CGGACATCTGG) | 0 |
| CGGACATCATGGACCGGTTTTCCCGGTAATCCGTATTTGCG (site CGGACATCTTG) | 0.00626 |
| CGGACCCCATGGACCGGTTTTCCCGGTAATCCGTATTTGTT (site CGGAATCCTAA) | 0.00407 |
| CGGACCCCATGGACCGGTTTTCCCGGTAATCCGTATTTGTT (site CGGACCCCTAA) | 1.02 |
| CGGACTACATGGACCGGTTTTCCCGGTAATCCGTATTTGCG (site CGGACTACTCG) | 1.64 |
| CGGACTTCATGGACCGGTTTTCCCGGTAATCCGTATTTGCC (site CGGACTTCTGG) | 1.27 |
| CGGATGACATGGACCGGTTTTCCCGGTAATCCGTATTTGCA (site CGGATGACTTG) | 2.89 |
| CGGATGGCATGGACCGGTTTTCCCGGTAATCCGTATTTGAA (site CGGATGGCTTT) | 2.15 |
| CGGATTCCATGGACCGGTTTTCCCGGTAATCCGTATTTGCT (site CGGAATCCTAA) | 0 |
| CGGATTCCATGGACCGGTTTTCCCGGTAATCCGTATTTGCT (site CGGATTCCTAG) | 0 |
| CGGCACTCATGGACCGGTTTTCCCGGTAATCCGTATTTGTA (site CGGCACTCTTA) | 3.03 |
| CGGCAGTCATGGACCGGTTTTCCCGGTAATCCGTATTTGCC (site CGGAAGTCTGG) | 0 |
| CGGCAGTCATGGACCGGTTTTCCCGGTAATCCGTATTTGCC (site CGGCAGTCTGG) | 2.22 |

| Sequence | recombinant UMI read abundance (log10) |
| --- | --- |
| CGGCAGTCATGGACCGGTTTTCCCGGTAATCCGTATTTGCC (site CGGGAGTCTGG) | 0 |
| CGGCAGTCATGGACCGGTTTTCCCGGTAATCCGTATTTGCC (site CGGTAGTCTGG) | 0 |
| CGGCCATCATGGACCGGTTTTCCCGGTAATCCGTATTTGCT (site CGGACATCTAG) | 0 |
| CGGCCATCATGGACCGGTTTTCCCGGTAATCCGTATTTGCT (site CGGCCATCTAG) | 1.29 |
| CGGCCATCATGGACCGGTTTTCCCGGTAATCCGTATTTGCT (site CGGGCATCTAG) | 0.0046 |
| CGGCCATCATGGACCGGTTTTCCCGGTAATCCGTATTTGCT (site CGGTCATCTAG) | 0 |
| CGGCCCACATGGACCGGTTTTCCCGGTAATCCGTATTTGTG (site CGGCCCACTCA) | 0.024 |
| CGGCCGACATGGACCGGTTTTCCCGGTAATCCGTATTTGTA (site CGGCCGACTTA) | 1.2 |
| CGGCCTCCATGGACCGGTTTTCCCGGTAATCCGTATTTGTT (site CGGAATCCTAA) | 0.0121 |
| CGGCCTCCATGGACCGGTTTTCCCGGTAATCCGTATTTGTT (site CGGCCTCCTAA) | 0.0159 |
| CGGCGCCCATGGACCGGTTTTCCCGGTAATCCGTATTTGAG (site CGGCGCCCTCT) | 0.00618 |
| CGGCGCCCATGGACCGGTTTTCCCGGTAATCCGTATTTGTC (site CGGCGCCCTGA) | 1.85 |
| CGGCTTTCATGGACCGGTTTTCCCGGTAATCCGTATTTGGC (site CGGCTTTCTGC) | 0.438 |
| CGGGAAACATGGACCGGTTTTCCCGGTAATCCGTATTTGAT (site CGGGAAACTAT) | 2.27 |
| CGGGAAACATGGACCGGTTTTCCCGGTAATCCGTATTTGAT (site CGGGAACCTAT) | 0.00381 |
| CGGGAAACATGGACCGGTTTTCCCGGTAATCCGTATTTGAT (site CGGGAAGCTAT) | 2.21 |
| CGGGAAACATGGACCGGTTTTCCCGGTAATCCGTATTTGAT (site CGGGAATCTAT) | 1.74 |
| CGGGAACCATGGACCGGTTTTCCCGGTAATCCGTATTTGAT (site AGGGAACCTAT) | 0 |
| CGGGAACCATGGACCGGTTTTCCCGGTAATCCGTATTTGAT (site CAGGAACCTAT) | 0 |
| CGGGAACCATGGACCGGTTTTCCCGGTAATCCGTATTTGAT (site CCGGAACCTAT) | 0 |
| CGGGAACCATGGACCGGTTTTCCCGGTAATCCGTATTTGAT (site CGAGAACCTAT) | 0 |
| CGGGAACCATGGACCGGTTTTCCCGGTAATCCGTATTTGAT (site CGCGAACCTAT) | 0 |
| CGGGAACCATGGACCGGTTTTCCCGGTAATCCGTATTTGAT (site CGGAAACCTAT) | 0 |
| CGGGAACCATGGACCGGTTTTCCCGGTAATCCGTATTTGAT (site CGGCAACCTAT) | 0 |
| CGGGAACCATGGACCGGTTTTCCCGGTAATCCGTATTTGAT (site CGGGAAACTAT) | 0 |
